Results on 25 molecules are retold here after ChEMBL document CHEMBL1129831, “Novel 2,5-disubstituted-1H-pyrroles with high affinity for the dopamine D3 receptor: N-benzyl modifications” (Bioorg Med Chem Lett, 1997).

For assay [1], the target named is Dopamine receptors; D2 & D3 (Homo sapiens) (UniProt P14416+P35462). As to the kind of experiment: Ratio of D3 receptor to the D2 receptor. In kind it is protein assay.
The target of assay [2] is D(3) dopamine receptor (Homo sapiens, UniProt P35462). Briefly: Binding affinity, displacement of [125I]iodosulpiride from human Dopamine receptor D3 expressed in CHO cells. In kind it is cell-based. (In a radioligand displacement assay an active substance lowers the binding of a labelled ligand.)
Chain of D(3) dopamine receptor (P35462 whole entry): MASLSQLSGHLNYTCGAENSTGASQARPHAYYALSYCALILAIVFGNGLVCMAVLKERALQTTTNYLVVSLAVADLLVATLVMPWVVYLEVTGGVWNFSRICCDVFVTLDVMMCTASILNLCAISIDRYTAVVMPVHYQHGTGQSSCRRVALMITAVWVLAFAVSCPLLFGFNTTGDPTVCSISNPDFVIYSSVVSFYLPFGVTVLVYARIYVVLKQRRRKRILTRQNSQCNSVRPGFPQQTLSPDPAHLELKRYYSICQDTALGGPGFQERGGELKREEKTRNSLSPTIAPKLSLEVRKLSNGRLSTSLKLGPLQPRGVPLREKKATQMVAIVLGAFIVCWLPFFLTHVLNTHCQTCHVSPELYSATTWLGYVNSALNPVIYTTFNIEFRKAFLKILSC
Assay [3] deals with D(2) dopamine receptor (Homo sapiens, UniProt P14416). As to the kind of experiment: Binding affinity, displacement of [125I]iodosulpiride from human Dopamine receptor D2 expressed in CHO cells. Type of assay: cell-based.
Chain of D(2) dopamine receptor (P14416 whole entry): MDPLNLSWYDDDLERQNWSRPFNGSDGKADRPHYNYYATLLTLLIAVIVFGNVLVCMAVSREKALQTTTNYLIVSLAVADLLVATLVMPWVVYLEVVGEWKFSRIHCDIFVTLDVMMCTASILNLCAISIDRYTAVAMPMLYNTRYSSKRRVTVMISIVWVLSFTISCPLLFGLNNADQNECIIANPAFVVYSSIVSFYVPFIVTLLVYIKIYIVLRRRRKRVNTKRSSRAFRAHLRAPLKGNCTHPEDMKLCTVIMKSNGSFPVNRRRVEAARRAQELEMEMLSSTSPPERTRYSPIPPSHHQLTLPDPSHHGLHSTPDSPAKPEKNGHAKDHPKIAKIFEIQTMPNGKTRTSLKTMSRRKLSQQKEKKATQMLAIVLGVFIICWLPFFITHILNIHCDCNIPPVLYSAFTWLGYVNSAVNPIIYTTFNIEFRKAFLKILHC

As usually defined, the Ki is a dissociation constant, usually derived from enzyme kinetics or from competition with a known ligand. A high value points to weaker binding.

In the case of `CCN(Cc1ccc(OC)c(OC)c1)Cc1ccc(-c2cc(S(=O)(=O)CC)ccc2OC)[nH]1`, the Ratio in assay [1] was 3. Moreover, the Ki is 12.6 nM in assay [2] and 31.6 nM in assay [3].

For the molecule `CCN(Cc1cccc(C)c1)Cc1ccc(-c2cc(S(=O)(=O)CC)ccc2OC)[nH]1`, the Ratio in assay [1] came out at 5. For the same molecule, the figures for the Ki in assay [2] and in assay [3] were 1.58 nM and 7.94 nM, respectively.

`CCS(=O)(=O)c1ccc(OC)c(-c2ccc(CN3CCCCCC3c3ccccc3)[nH]2)c1` (stereo not drawn): the Ratio in assay [1] was determined as 30.

Regarding `CCN(Cc1ccc(Cl)cc1)Cc1ccc(-c2cc(S(=O)(=O)CC)ccc2OC)[nH]1`, the Ratio in assay [1] came out at 3. The Ki was 0.398 nM in assay [2] and 1 nM in assay [3].

With `CCN(Cc1ccc(-c2cc(S(=O)(=O)CC)ccc2OC)[nH]1)[C@H](C)c1ccccc1`, the Ratio in assay [1] amounted to 10. For the same molecule, the Ki in assay [2] is 0.794 nM; in assay [3] it was 7.94 nM.

On to `CCN(Cc1ccc(C)cc1)Cc1ccc(-c2cc(S(=O)(=O)CC)ccc2OC)[nH]1`, for which the Ratio in assay [1] turned out to be 2. Also, the Ki in assay [2] was 0.2 nM; in assay [3], 0.398 nM.

`CCN(Cc1ccc(-c2cc(S(=O)(=O)CC)ccc2OC)[nH]1)Cc1ccccc1Cl`: in assay [1], the Ratio was found to be 3. Also, the Ki is 6.31 nM in assay [2] and 20 nM in assay [3].

Turning to `CCN(Cc1cccc(Cl)c1)Cc1ccc(-c2cc(S(=O)(=O)CC)ccc2OC)[nH]1`, the Ratio in assay [1] is 4. For the same molecule, the results for the Ki in assay [2] and in assay [3] were 2.51 nM and 10 nM, respectively.

On to `CCS(=O)(=O)c1ccc(OC)c(-c2ccc(CN3CCCCCC3c3ccc(OC)cc3)[nH]2)c1` (stereo not drawn), for which the Ratio in assay [1] was found to be 15. Also, the inhibition constant Ki in assay [2] was 1.58 nM; in assay [3] it was 25.1 nM.

For the molecule `CCN(Cc1ccc(-c2cc(S(=O)(=O)CC)ccc2OC)[nH]1)Cc1ccccc1C`, in assay [1], the Ratio came to 2. Moreover, the results for the inhibitory constant (Ki) in assay [2] and in assay [3] were 3.16 nM and 6.31 nM, respectively.

Regarding `CCS(=O)(=O)c1ccc(OC)c(-c2ccc(C3CCCN3Cc3ccccc3)[nH]2)c1` (stereo not drawn), the Ratio in assay [1] was 4. Further, the values for the Ki in assay [2] and in assay [3] were 10 nM and 39.8 nM, respectively.

As for `CCS(=O)(=O)c1ccc(OC)c(-c2ccc(CN3CCCCCC3c3cccc(OC)c3)[nH]2)c1` (stereo not drawn), the Ratio in assay [1] is 15. Also, the results for the Ki in assay [2] and in assay [3] were 50.1 nM and 794 nM, respectively.

Regarding `CCN1[C@@H](c2ccc(-c3cc(S(=O)(=O)CC)ccc3OC)[nH]2)CC[C@H]1c1ccccc1`, the Ki in assay [2] is 100 nM; in assay [3] it was 158 nM.

Take `CCN1[C@H](c2ccccc2)CC[C@H]1c1ccc(-c2cc(S(=O)(=O)CC)ccc2OC)[nH]1`: in assay [1], the Ratio was determined as 4. Also, the Ki in assay [2] was 10 nM; in assay [3] it was 39.8 nM.

As for `CCN(Cc1cccc(OC)c1)Cc1ccc(-c2cc(S(=O)(=O)CC)ccc2OC)[nH]1`, in assay [1], the Ratio turned out to be 10. For the same molecule, the Ki in assay [2] is 7.94 nM; in assay [3], 79.4 nM.

As to `CCN(Cc1ccc(-c2cc(S(=O)(=O)CC)ccc2OC)[nH]1)C1CCc2ccccc21` (stereo not drawn), the Ki in assay [2] and in assay [3] was 0.794 nM in each case.

As to `CCN(Cc1ccc(-c2cc(S(=O)(=O)CC)ccc2OC)[nH]1)Cc1ccccc1OC`, the figures for the Ki in assay [2] and in assay [3] were 10 nM and 15.8 nM, respectively.

Regarding `CCS(=O)(=O)c1ccc(OC)c(-c2ccc(CN3CCc4ccccc4C3)[nH]2)c1`, the Ratio in assay [1] came out at 3. Also, the values for the Ki in assay [2] and in assay [3] were 31.6 nM and 100 nM, respectively.

`CCN(Cc1ccccc1)Cc1ccc(-c2cc(S(=O)(=O)CC)ccc2OC)[nH]1`: the Ratio in assay [1] came out at 3.

For `CCN(Cc1ccc(OC)cc1)Cc1ccc(-c2cc(S(=O)(=O)CC)ccc2OC)[nH]1`, in assay [1], the Ratio stood at 8. The Ki in assay [2] was 0.251 nM; in assay [3], 2 nM.

Turning to `CCS(=O)(=O)c1ccc(OC)c(-c2ccc(CN3CCCCCC3c3ccccc3C)[nH]2)c1` (stereo not drawn), the Ratio in assay [1] came out at 10. Besides, the figures for the inhibitory constant (Ki) in assay [2] and in assay [3] were 100 nM and 1260 nM, respectively.

As for `CCN(Cc1ccc(-c2cc(S(=O)(=O)CC)ccc2OC)[nH]1)C1CCCc2ccccc21` (stereo not drawn), in assay [1], the Ratio came to 3. Besides, the Ki in assay [2] was 5.01 nM; in assay [3], 12.6 nM.

Regarding `CCN(Cc1ccc2c(c1)OCO2)Cc1ccc(-c2cc(S(=O)(=O)CC)ccc2OC)[nH]1`, the Ratio in assay [1] was 5. Besides, the Ki was 0.631 nM in assay [2] and 3.16 nM in assay [3].

In the case of `CCS(=O)(=O)c1ccc(OC)c(-c2ccc(CN3CCCCCC3c3ccc(C)cc3)[nH]2)c1` (stereo not drawn), in assay [1], the Ratio came to 30. For the same molecule, the Ki in assay [2] is 0.794 nM; in assay [3] it was 25.1 nM.

Take `CCN(Cc1ccc(-c2cc(S(=O)(=O)CC)ccc2OC)[nH]1)[C@@H](C)c1ccccc1`: in assay [1], the Ratio came out at 10. Further, the Ki in assay [2] was 2.51 nM; in assay [3], 25.1 nM.
